Reference: patent publication US6737383B1, “Herbicidal oxadiazolidines” (priority 1999, dated 2004)

Key:
purple nutsedge = assay: Test B pre/postemergence purple nutsedge; format: in vivo, Cyperus rotundus
Procedure, shortened: (§1)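 Response is a visual 0-to-10 score relative to untreated plants, where 0 means no effect and 10 means complete control, taken twelve to sixteen days after application. Treatments went onto soil at planting and onto foliage of 1- to 4-leaf plants, using a surfactant-containing non-phytotoxic solvent.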

soybean = assay: Test B pre/postemergence soybean; format: in vivo, Glycine max
Procedure, shortened: as §1

blackgrass = assay: Test B pre/postemergence blackgrass; format: in vivo, Alopecurus myosuroides
Procedure, shortened: as §1

duck salad = assay: Test B flood test duck salad; format: in vivo, Heteranthera limosa
Procedure, shortened: (§2)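 Each value is a visual injury score relative to controls, with 10 meaning complete control and 0 no effect. Evaluation took place twelve to sixteen days after the 2-leaf-stage plants were treated and kept in the greenhouse.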

bamyardgrass = assay: Test B flood test barnyardgrass; format: in vivo, Echinochloa crus-galli
Procedure, shortened: as §2

pigweed = assay: Test B pre/postemergence pigweed; format: in vivo, Amaranthus retroflexus
Procedure, shortened: as §1

corn = assay: Test B pre/postemergence corn; format: in vivo, Zea mays
Procedure, shortened: as §1

rice = assay: Test B flood test rice; format: in vivo, Oryza sativa
Procedure, shortened: as §2

bedstraw = assay: Test B pre/postemergence bedstraw; format: in vivo, Galium aparine; settings: Postemergence
Procedure, shortened: as §1

rape = assay: Test B pre/postemergence rape; format: in vivo, Brassica napus
Procedure, shortened: as §1

surinam grass = assay: Test B pre/postemergence surinam grass; format: in vivo, Brachiaria decumbens
Procedure, shortened: as §1

giant foxtail = assay: Test B pre/postemergence giant foxtail; format: in vivo, Setaria faberii
Procedure, shortened: as §1

velvetleaf = assay: Test B pre/postemergence velvetleaf; format: in vivo, Abutilon theophrasti
Procedure, shortened: as §1

smallflower flatsedge = assay: Test B flood test smallflower flatsedge; format: in vivo, Cyperus difformis
Procedure, shortened: as §2

sugar beet = assay: Test B pre/postemergence sugar beet; format: in vivo, Beta vulgaris
Procedure, shortened: as §1

morningglory = assay: Test B pre/postemergence morningglory; format: in vivo, Ipomoea hederacea
Procedure, shortened: as §1

[1] = Postemergence, Rate 62 g/ha, scale 0 to 10, 0 is no effect, 10 is complete control
[2] = Postemergence, Rate 125 g/ha, scale of 0 to 10 where 0 is no effect and 10 is complete control
[3] = Postemergence, Rate 250 g/ha, scale of 0 to 10, 0 is no effect, 10 is complete control
[4] = Preemergence, Rate 62 g/ha, scale 0 to 10 (0 no effect, 10 complete control)
[5] = Preemergence, Rate 125 g/ha, scale of 0 to 10 where 0 is no effect and 10 is complete control
[6] = Preemergence, Rate 250 g/ha, scale 0 to 10 (0 no effect, 10 complete control)
[7] = Preemergence, Rate 500 g/ha, scale of 0 to 10 where 0 is no effect and 10 is complete control
[8] = Postemergence, Rate 500 g/ha, scale of 0 to 10 where 0 is no effect and 10 is complete control
[9] = Rate 62 g/ha, flood test species, Pre-emergence, visual evaluation after twelve to sixteen days
[10] = Rate 125 g/ha, under heading Pre-emergence, flood test species, visual evaluation after twelve to sixteen days
[11] = Rate 250 g/ha, Pre-emergence (flood test species), scale 0 to 10, 0 is no effect, 10 is complete control
[12] = Rate 500 g/ha, Pre-emergence section of Table B, 0 to 10 scale (0 no effect, 10 complete control)

## CC(=O)N(C)CCn1c(=O)on(C(=O)N(c2ccc(F)cc2)C(C)C)c1=O [Compound 625]
Purple nutsedge; [1]
  Plant response rating, Nutsedge: 0
Purple nutsedge; [2]
  Plant response rating, Nutsedge: 0
Purple nutsedge; [3]
  Nutsedge plant response rating: 0
Purple nutsedge; [4]
  Nutsedge plant response rating: 0
Purple nutsedge; [5]
  Nutsedge plant response rating: 0
Purple nutsedge; [6]
  Plant response rating, Nutsedge: 0
Purple nutsedge; [7]
  Plant response rating, Nutsedge: 0
soybean; [1]
  Plant response rating, Soybean: 0
soybean; [2]
  Plant response rating, Soybean: 2
soybean; [3]
  Soybean plant response rating: 3
soybean; [4]
  Soybean plant response rating: 0
soybean; [5]
  Soybean plant response rating: 0
soybean; [6]
  Plant response rating, Soybean: 0
soybean; [7]
  Plant response rating, Soybean: 0
blackgrass; [1]
  Plant response rating, Blackgrass: 0
blackgrass; [2]
  Plant response rating, Blackgrass: 2
blackgrass; [3]
  Blackgrass plant response rating: 7
blackgrass; [8]
  Plant response rating, Blackgrass: 7
blackgrass; [4]
  Blackgrass plant response rating: 0
blackgrass; [5]
  Blackgrass plant response rating: 3
blackgrass; [6]
  Plant response rating, Blackgrass: 7
blackgrass; [7]
  Plant response rating, Blackgrass: 9
Duck salad; [9]
  Plant response rating, Ducksalad (0 to 10 scale, 0 is no effect, 10 is complete control): 0
Duck salad; [10]
  Ducksalad plant response rating (0 to 10 scale, 0 is no effect, 10 is complete control): 0
Duck salad; [11]
  Ducksalad plant response rating: 0
Duck salad; [12]
  Ducksalad plant response rating: 0
bamyardgrass; [9]
  Plant response rating, Barnyardgrass (0 to 10 scale, 0 is no effect, 10 is complete control): 0
bamyardgrass; [10]
  Barnyardgrass plant response rating (0 to 10 scale, 0 is no effect, 10 is complete control): 0
bamyardgrass; [11]
  Barnyardgrass plant response rating: 0
bamyardgrass; [12]
  Barnyardgrass plant response rating: 0
pigweed; [1]
  Plant response rating, Redroot pigweed: 0
pigweed; [2]
  Plant response rating, Redroot pigweed: 0
pigweed; [3]
  Redroot pigweed plant response rating: 0
pigweed; [4]
  Redroot pigweed plant response rating: 0
pigweed; [5]
  Redroot pigweed plant response rating: 0
pigweed; [6]
  Plant response rating, Redroot pigweed: 4
pigweed; [7]
  Plant response rating, Redroot pigweed: 8
corn; [1]
  Plant response rating, Corn: 0
corn; [2]
  Plant response rating, Corn: 0
corn; [3]
  Corn plant response rating: 0
corn; [8]
  Plant response rating, Corn: 3
corn; [4]
  Corn plant response rating: 0
corn; [5]
  Corn plant response rating: 0
corn; [6]
  Plant response rating, Corn: 0
corn; [7]
  Plant response rating, Corn: 3
rice; [9]
  Plant response rating, Rice (0 to 10 scale, 0 is no effect, 10 is complete control): 0
rice; [10]
  Rice plant response rating (0 to 10 scale, 0 is no effect, 10 is complete control): 0
rice; [11]
  Rice plant response rating: 0
rice; [12]
  Rice plant response rating: 0
bedstraw; Rate 62 g/ha, scale 0 to 10, 0 is no effect, 10 is complete control
  Plant response rating, Bedstraw: 0
bedstraw; Rate 125 g/ha, scale of 0 to 10 where 0 is no effect and 10 is complete control
  Plant response rating, Bedstraw: 0
rape; [1]
  Plant response rating, Rape: 0
rape; [2]
  Plant response rating, Rape: 0
rape; [3]
  Rape plant response rating: 0
rape; [8]
  Plant response rating, Rape: 0
rape; [4]
  Rape plant response rating: 0
rape; [5]
  Rape plant response rating: 0
rape; [7]
  Plant response rating, Rape: 4
Surinam grass; [1]
  Plant response rating, B. signalgrass: 0
Surinam grass; [2]
  Plant response rating, B. signalgrass: 0
Surinam grass; [3]
  B. signalgrass plant response rating: 2
Surinam grass; [8]
  Plant response rating, B. signalgrass: 5
Surinam grass; [4]
  B. signalgrass plant response rating: 0
Surinam grass; [5]
  B. signalgrass plant response rating: 4
Surinam grass; [6]
  Plant response rating, B. signalgrass: 8
Surinam grass; [7]
  Plant response rating, B. signalgrass: 10
Giant foxtail; [1]
  Plant response rating, Giant foxtail: 0
Giant foxtail; [2]
  Plant response rating, Giant foxtail: 3
Giant foxtail; [3]
  Giant foxtail plant response rating: 5
Giant foxtail; [8]
  Plant response rating, Giant foxtail: 9
Giant foxtail; [4]
  Giant foxtail plant response rating: 6
Giant foxtail; [5]
  Giant foxtail plant response rating: 9
Giant foxtail; [6]
  Plant response rating, Giant foxtail: 10
Giant foxtail; [7]
  Plant response rating, Giant foxtail: 10
velvetleaf; [1]
  Plant response rating, Velvetleaf: 0
velvetleaf; [2]
  Plant response rating, Velvetleaf: 0
velvetleaf; [3]
  Velvetleaf plant response rating: 0
velvetleaf; [4]
  Velvetleaf plant response rating: 0
velvetleaf; [5]
  Velvetleaf plant response rating: 0
velvetleaf; [6]
  Plant response rating, Velvetleaf: 1
velvetleaf; [7]
  Plant response rating, Velvetleaf: 6
Smallflower flatsedge; [9]
  Plant response rating, S. Flatsedge (0 to 10 scale, 0 is no effect, 10 is complete control): 0
Smallflower flatsedge; [10]
  S. Flatsedge plant response rating (0 to 10 scale, 0 is no effect, 10 is complete control): 0
Smallflower flatsedge; [11]
  S. Flatsedge plant response rating: 0
Smallflower flatsedge; [12]
  S. Flatsedge plant response rating: 0
Sugar beet; [1]
  Plant response rating, Sugarbeets: 0
Sugar beet; [2]
  Plant response rating, Sugarbeets: 0
Sugar beet; [3]
  Sugarbeets plant response rating: 0
Sugar beet; [4]
  Sugarbeets plant response rating: 0
Sugar beet; [5]
  Sugarbeets plant response rating: 0
Sugar beet; [6]
  Plant response rating, Sugarbeets: 0
Sugar beet; [7]
  Plant response rating, Sugarbeets: 0
morningglory; [1]
  Plant response rating, Morningglory: 0
morningglory; [2]
  Plant response rating, Morningglory: 1
morningglory; [3]
  Morningglory plant response rating: 1
morningglory; [8]
  Plant response rating, Morningglory: 2
morningglory; [4]
  Morningglory plant response rating: 0
morningglory; [5]
  Morningglory plant response rating: 0
morningglory; [6]
  Plant response rating, Morningglory: 2
morningglory; [7]
  Plant response rating, Morningglory: 3
